Experimental data reported in the NIST ThermoML archive (doi:10.1021/je700035m).
± gives the expanded uncertainty stated by the source.

Experiments:
[1] = Crystal; DTA
[2] = Molar enthalpy of transition or fusion; settings: Crystal; DSC
[3] = molar enthalpy of vaporization or sublimation; settings: 298.15 K, vacuum sublimation/vaporization calorimetry

| Structure (SMILES) | Normal melting temperature [1] [°C] | Molar enthalpy of transition or fusion [2] [kcal/mol] | molar enthalpy ([3]; Crystal) [kcal/mol] | molar enthalpy ([3]; Liquid) [kcal/mol] |
| --- | --- | --- | --- | --- |
| O=[N+]([O-])c1ccc2c(c1)OCO2 [1,2-(methylenedioxy)-4-nitrobenzene] | 147.01 ± 0.39 | 6.74 ± 0.287 | 23.3 ± 1.03 | – |
| N#Cc1ccc2c(c1)OCO2 [3,4-methylenedioxybenzonitrile] | 93.11 ± 0.39 | 4.97 ± 0.12 | 21.7 ± 0.43 | – |
| Cc1ccc2c(c1)OCO2 [5-methyl-1,3-benzodioxole] | – | – | – | 13.1 ± 0.55 |
| CC(=O)c1ccc2c(c1)OCO2 [5-oxoethyl-1,3-benzodioxole] | 85.72 ± 0.39 | 6.27 ± 0.141 | 25 ± 1.03 | – |
